This assay relates to NL4-3 strain of HIV-1. The assay can be described thus: HIV-1 replication inhibition: cyto-protection of MT4 cells infected with NL4-3 virus (CellTiter-Glo viability assay). It is filed as cell-based. As to conditions: Human immunodeficiency virus 1, NL43, 120 h, concentration leading to 50% of cyto-protection, 5 days incubation. The procedure, abridged: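 MT4 cells were infected with NL4-3 HIV-1 for 2 hours at 37° (moi 0.0001-0.00001), washed, then incubated 5 days at 37° with serially diluted compounds in RPMI at 0.5% DMSO final. Protection of cell viability was read as CellTiter-Glo luminescence.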
Regarding `Cc1cccc(-c2sc(C)c(C(OC(C)(C)C)C(=O)O)c2C2=CCC(C)(C)CC2)n1` (stereo not shown) [Example 73, 2-(tert-butoxy)-2-{2-methyl-4-[4,4-dimethylcyclohex-1-en-1-yl]-5-(6-methylpyridin-2-yl)thiophen-3-yl}acetic acid], it took 6900 nM to reach a half-maximal effect (EC50).
On to `Cc1sc(-c2ccncc2)c(-c2ccc3c4c(ccnc24)CCO3)c1C(OC(C)(C)C)C(=O)O` (stereo not shown) [Example 74, 2-(tert-butoxy)-2-(2-methyl-4-(2,3-dihydropyrano[4,3,2-de]quinolin-7-yl)-5-(pyridin-4-yl)thiophen-3-yl)acetic acid], for which the half-maximal effective concentration (EC50) (commonly the concentration that produces a half-maximal response) came out at 6800 nM. This EC50 and that of the compound before are within 1.5-fold of each other.
As for `Cc1sc(-c2cc(F)c3c(c2)CCCO3)c(-c2cc(F)c3c(c2)CCCO3)c1C(OC(C)(C)C)C(=O)O` (stereo not shown) [Example 75, 2-[4,5-bis(8-fluoro-3,4-dihydro-2H-1-benzopyran-6-yl)-2-methylthiophen-3-yl]-2-(tert-butoxy)acetic acid], the figure is 2400 nM; as for `Cc1sc(-c2ccc(C(=O)N(C)C)cc2)c(C2=CCC(C)(C)CC2)c1C(OC(C)(C)C)C(=O)O` (stereo not shown) [Example 76], 3300 nM.
Next, `Cc1sc(-c2ccc(S(=O)(=O)N(C)C)cc2)c(C2=CCC(C)(C)CC2)c1C(OC(C)(C)C)C(=O)O` (stereo not shown) [Example 77, 2-(tert-butoxy)-2-[4-(4,4-dimethylcyclohex-1-en-1-yl)-5-[4-(dimethylsulfamoyl)phenyl]-2-methylthiophen-3-yl]acetic acid]: 4400 nM.
Take `Cc1sc(C2=CCOCC2)c(-c2ccc3c(c2)CCCO3)c1C(OC(C)(C)C)C(=O)O` (stereo not shown) [Example 78, 2-(tert-butoxy)-2-[4-(3,4-dihydro-2H-1-benzopyran-6-yl)-5-(3,6-dihydro-2H-pyran-4-yl)-2-methylthiophen-3-yl]acetic acid]: the concentration giving a half-maximal response (EC50) came to 4300 nM.
Compound `COc1ccc(-c2sc(C)c(C(OC(C)(C)C)C(=O)O)c2-c2ccc3c(c2)CCCO3)cn1` (stereo not shown) [Example 79, 2-(tert-butoxy)-2-[4-(3,4-dihydro-2H-1-benzopyran-6-yl)-5-(6-methoxypyridin-3-yl)-2-methylthiophen-3-yl]acetic acid] registered an EC50 of 1500 nM.
Next, `Cc1sc(-c2cnn(Cc3ccccc3)c2)c(-c2ccc3c(c2)CCCO3)c1C(OC(C)(C)C)C(=O)O` (stereo not shown) [Example 80, 2-[5-(1-benzyl-1H-pyrazol-4-yl)-4-(3,4-dihydro-2H-1-benzopyran-6-yl)-2-methylthiophen-3-yl]-2-(tert-butoxy)acetic acid]: 6200 nM.
As for `Cc1sc(-c2cccn2C)c(-c2ccc3c(c2)CCCO3)c1C(OC(C)(C)C)C(=O)O` (stereo not shown) [Example 81, 2-(tert-butoxy)-2-[4-(3,4-dihydro-2H-1-benzopyran-6-yl)-2-methyl-5-(1-methyl-1H-pyrrol-2-yl)thiophen-3-yl]acetic acid], the figure is 2500 nM.
Consider `COC1(C)CC=C(c2c(-c3cnc4c(c3)CCCO4)sc(C)c2C(OC(C)(C)C)C(=O)O)CC1` (stereo not shown) [Example 82, 2-(tert-butoxy)-2-[4-(4-methoxy-4-methylcyclohex-1-en-1-yl)-2-methyl-5-{2H,3H,4H-pyrano[2,3-b]pyridin-6-yl}thiophen-3-yl]acetic acid], for which the EC50 was found to be 1000 nM.
Next, `Cc1sc(-c2cc(C(F)(F)F)nn2C)c(-c2ccc3c(c2)CCCO3)c1C(OC(C)(C)C)C(=O)O` (stereo not shown) [Example 83, 2-(tert-butoxy)-2-[4-(3,4-dihydro-2H-1-benzopyran-6-yl)-2-methyl-5-[1-methyl-3-(trifluoromethyl)-1H-pyrazol-5-yl]thiophen-3-yl]acetic acid]: 1700 nM; `COc1cc(-c2sc(C)c(C(OC(C)(C)C)C(=O)O)c2-c2ccc3c(c2)CCCO3)ccn1` (stereo not shown) [Example 84, 2-(tert-butoxy)-2-[4-(3,4-dihydro-2H-1-benzopyran-6-yl)-5-(2-methoxy-pyridin-4-yl)-2-methylthiophen-3-yl]acetic acid]: 1500 nM; `Cc1sc(-n2cccn2)c(-c2ccc3c(c2)CCCO3)c1C(OC(C)(C)C)C(=O)O` (stereo not shown) [Example 85, 2-(tert-butoxy)-2-[4-(3,4-dihydro-2H-1-benzopyran-6-yl)-2-methyl-5-(1H-pyrazol-1-yl)thiophen-3-yl]acetic acid]: 1900 nM.
`Cc1sc(-c2ccsn2)c(-c2ccc3c(c2)CCCO3)c1C(OC(C)(C)C)C(=O)O` (stereo not shown) [Example 86, 2-(tert-butoxy)-2-[4-(3,4-dihydro-2H-1-benzopyran-6-yl)-2-methyl-5-(1,2-thiazol-3-yl)thiophen-3-yl]acetic acid] returned an EC50 of 270 nM.
As for `Cc1sc(-c2cnn(C)c2)c(-c2ccc3c(c2)CCCO3)c1C(OC(C)(C)C)C(=O)O` (stereo not shown) [Example 88, 2-(tert-butoxy)-2-[4-(3,4-dihydro-2H-1-benzopyran-6-yl)-2-methyl-5-(1-methyl-1H-pyrazol-4-yl)thiophen-3-yl]acetic acid], the figure is 1600 nM; as for `Cc1csnc1-c1sc(C)c(C(OC(C)(C)C)C(=O)O)c1C1=CCC(C)(C)CC1` (stereo not shown) [Example 89, 2-(tert-butoxy)-2-{2-methyl-4-[4,4-dimethylcyclohex-1-en-1-yl]-5-(4-methylisothiazol-3-yl)thiophen-3-yl}acetic acid], 860 nM.

The values are drawn from patent US9562033B2, “Inhibitors of viral replication, their process of preparation and their therapeutical uses” (LABORATOIRE BIODIM, priority 2012, dated 2017).
